Values quoted from earlier work, collected in patent US20100255088A1 (priority 2009, published 2010).
Like-named read-outs stand apart in the source and are kept apart here.

How the values were obtained:
[1] = not given; remark: listed apart in the source
[2] = test system: isolated pig retinal artery; settings: through the NO system and prostacycline secretion
[3] = test system: platelet aggregation; settings: aspirin resistance group of patients
[4] = test system: yeast and primitives animals; settings: high resveratrol levels artificially maintained
[5] = biological target: H+/K+ ATPase (Homo sapiens, UniProt P20648); settings: Life Sciences 66(8), 2000, 663-673
Sequence of H+/K+ ATPase (P20648 whole entry): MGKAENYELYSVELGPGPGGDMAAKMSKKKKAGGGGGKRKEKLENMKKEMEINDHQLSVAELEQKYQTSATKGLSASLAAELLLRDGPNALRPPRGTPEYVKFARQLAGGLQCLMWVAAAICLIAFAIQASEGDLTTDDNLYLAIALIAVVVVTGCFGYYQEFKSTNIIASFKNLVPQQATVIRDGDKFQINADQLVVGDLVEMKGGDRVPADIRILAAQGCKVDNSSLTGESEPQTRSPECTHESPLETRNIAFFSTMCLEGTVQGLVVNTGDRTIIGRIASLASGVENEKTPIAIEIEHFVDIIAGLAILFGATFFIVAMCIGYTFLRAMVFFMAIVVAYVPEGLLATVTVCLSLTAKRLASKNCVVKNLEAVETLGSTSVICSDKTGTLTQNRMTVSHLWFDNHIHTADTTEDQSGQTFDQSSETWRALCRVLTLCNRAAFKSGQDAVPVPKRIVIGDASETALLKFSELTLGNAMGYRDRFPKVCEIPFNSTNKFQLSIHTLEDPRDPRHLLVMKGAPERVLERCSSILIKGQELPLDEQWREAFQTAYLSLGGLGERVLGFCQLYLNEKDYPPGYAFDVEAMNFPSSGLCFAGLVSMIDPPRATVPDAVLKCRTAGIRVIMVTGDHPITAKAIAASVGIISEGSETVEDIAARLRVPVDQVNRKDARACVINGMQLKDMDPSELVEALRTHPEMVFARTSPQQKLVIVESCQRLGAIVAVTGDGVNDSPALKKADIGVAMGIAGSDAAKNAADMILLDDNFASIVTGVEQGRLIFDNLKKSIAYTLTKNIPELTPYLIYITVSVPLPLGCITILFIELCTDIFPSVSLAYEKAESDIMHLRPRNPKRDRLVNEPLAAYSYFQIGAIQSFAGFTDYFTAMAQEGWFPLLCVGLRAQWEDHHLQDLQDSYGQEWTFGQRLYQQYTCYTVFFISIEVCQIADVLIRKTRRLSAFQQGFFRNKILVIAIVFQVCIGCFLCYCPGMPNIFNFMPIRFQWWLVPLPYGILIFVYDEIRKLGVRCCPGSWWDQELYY
Sequence of H+/K+ ATPase (P51164 whole entry partner): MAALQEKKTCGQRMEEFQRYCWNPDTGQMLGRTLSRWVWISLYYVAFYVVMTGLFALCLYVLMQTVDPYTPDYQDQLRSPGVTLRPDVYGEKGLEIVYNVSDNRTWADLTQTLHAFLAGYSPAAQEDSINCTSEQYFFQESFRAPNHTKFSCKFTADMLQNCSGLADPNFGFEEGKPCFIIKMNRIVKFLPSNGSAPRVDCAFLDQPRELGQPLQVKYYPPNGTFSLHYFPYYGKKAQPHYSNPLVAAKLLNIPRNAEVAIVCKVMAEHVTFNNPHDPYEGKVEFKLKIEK

For `CC(=O)Oc1ccccc1C(=O)O` [aspirin, acetyl salicylic acid], the “patients with reduced mortality” value (at least 325 mg daily for ten years) is listed as 50%, the “incidence of various human carcinomas” value (full dose aspirin for ten years and above) is listed as “halved” and the “patients with reduced mortality” value (higher doses for ten years) is listed as 75%. The water solubility [1] was “not water-soluble”.

For `Oc1ccc(C=Cc2cc(O)cc(O)c2)cc1` [resveratrol], the vasodilating effect [2] is given as “strong vasodilating effect”, the platelet aggregation inhibition [3] is given as “optimal platelet aggregation inhibition” and the life span [4] is given as “doubling the life span”. The hydrochloric acid production [5] was “reducing significantly the hydrochloric acid production”.
